Key:
[1] = system: Rat pancreatic islets; assay: Protection of islets by an SPT inhibitor (fatty acid medium, propidium iodide flow cytometry); assay type: cell-based; settings: 3 days
Procedure: Islet protection by an exemplary compound is evaluated in an assay according to Eitel, K, et al. Biochem. Biophys. Res. Commun. 299: 853-6 (2002), and results obtained in this assay are reported below in Table 4. Rat pancreatic islets are cultured with control medium (RPMI 1640 supplemented with 10% fetal bovine serum, antibiotics and made […]) or in medium supplemented with 1 millimolar sodium palmitate (Fatty Acid Medium) during a period of 3 days. The culture medium is changed after 2 days to an identical composition culture medium with fresh inhibitor in the appropriate wells. Cells are stained with propidium iodide (PI), washed and propidium staining of cells (as a measure of cellular DNA content) is assessed by flow cytometry. The percentage of cells having less than the normal amount of PI staining is considered to be apoptotic cells (Eitel, K, et al. (2002)).

[2] = target: T1, SPT (Homo sapiens, UniProt O15269+O15270); assay: Serine palmitoyltransferase activity, Assay C ([3H]serine incorporation into lipids, cell homogenates); assay type: biochemical; settings: [3H]serine radioactivity incorporated into lipids, 37° C. 20 min, at the doses indicated
T1 construct: endogenous in cells; host or cells: unnamed cultured cells (Assay B, which Assay C modifies, offers 'CHO cells or a human cell line')
T1 sequence (O15269 1-473): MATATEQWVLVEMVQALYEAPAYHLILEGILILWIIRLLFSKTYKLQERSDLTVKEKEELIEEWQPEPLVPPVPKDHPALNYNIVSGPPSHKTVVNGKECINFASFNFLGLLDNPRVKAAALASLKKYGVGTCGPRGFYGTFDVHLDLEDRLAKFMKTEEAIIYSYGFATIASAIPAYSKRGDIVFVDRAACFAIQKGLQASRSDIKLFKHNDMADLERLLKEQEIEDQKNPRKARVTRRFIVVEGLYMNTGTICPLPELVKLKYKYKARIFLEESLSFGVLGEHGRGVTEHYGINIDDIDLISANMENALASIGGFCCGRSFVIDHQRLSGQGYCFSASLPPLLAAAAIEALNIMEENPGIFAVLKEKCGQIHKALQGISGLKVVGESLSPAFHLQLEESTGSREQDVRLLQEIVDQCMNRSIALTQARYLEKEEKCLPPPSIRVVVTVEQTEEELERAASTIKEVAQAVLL
T1 sequence (O15270 1-562): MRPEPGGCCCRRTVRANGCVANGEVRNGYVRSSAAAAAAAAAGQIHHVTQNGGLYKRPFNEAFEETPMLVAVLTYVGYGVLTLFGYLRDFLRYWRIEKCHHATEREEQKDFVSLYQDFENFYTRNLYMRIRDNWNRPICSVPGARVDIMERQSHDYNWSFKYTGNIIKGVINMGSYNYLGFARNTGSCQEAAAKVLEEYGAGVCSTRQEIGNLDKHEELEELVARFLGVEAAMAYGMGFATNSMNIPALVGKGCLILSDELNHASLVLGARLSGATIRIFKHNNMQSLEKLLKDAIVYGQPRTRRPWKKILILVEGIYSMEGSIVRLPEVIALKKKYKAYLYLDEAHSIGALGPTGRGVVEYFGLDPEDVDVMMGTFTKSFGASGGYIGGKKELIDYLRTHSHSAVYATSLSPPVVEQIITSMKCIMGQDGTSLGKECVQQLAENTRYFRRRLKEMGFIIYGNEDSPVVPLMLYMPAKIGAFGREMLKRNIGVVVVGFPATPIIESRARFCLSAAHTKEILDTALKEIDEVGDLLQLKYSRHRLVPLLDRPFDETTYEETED
T1 sequence (Q969W0 1-71 partner): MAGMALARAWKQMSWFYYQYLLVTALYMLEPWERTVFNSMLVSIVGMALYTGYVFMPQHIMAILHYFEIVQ
Procedure: An alternative assay for evaluating inhibition of SPT, the enzyme present in commonly cultured cells, is performed with CHO cells or a human cell line. Cells are washed three times with ice-cold phosphate-buffered saline (PBS). A total of 0.5 mL of lysis buffer [50 mM Hepes (pH 8.0) containing 5 mM ethylenediaminetetraacetic acid (EDTA) and 5 mM dithiothreitol (DTT)] is added to each dish. The cells are scraped using a rubber policeman, and are then transferred to a test tube on ice. The cell suspension is sonicated three times for 5 s at 1-2 min intervals on ice. Protein concentrations in cell homogenates are measured using a Bradford protein assay kit (Bio-Rad). […] The radioactivity is measured with a LS6000TA liquid scintillation counter (Beckman). Nonspecific conversion of [^3H] serine to chloroform-soluble species is determined by performing the assay in the absence of palmitoyl CoA. […]
An alternative assay using a non-chlorinated solvent modification of the Blye and Dyer lipid extraction method reported in Smedes (Smedes, F. (1999) Analyst 124, 1711-18) is employed to evaluate exemplary compounds. […] An accurately measured portion of the organic layer (4.0 ml) is added to a scintillation vial with 1 ml of water. […] The amount of [^3H] serine radioactivity incorporated into lipids is quantified in a scintillation counter. […]

[3] = system: SPT; settings: literature report, immunosuppressive assay for FTY720-like activity; cited from earlier work
[4] = system: diabetic Zucker fatty rat model; settings: inhibition of SPT; cited from earlier work

Structure (SMILES)	inhibition of SPT [2]	activity against SPT [3]	further results
CCCCCCCOc1ccc(CCC(O)C(O)C(N)(CC(N)=O)C(=O)O)cc1 (stereo not shown) [Compound 12]	moderate activity	–	protection of cells from the fatty acid treatment (apoptotic cells by PI staining) ([1]; 1 millimolar sodium palmitate): fully protect; benefit in comparison to treatment with the control medium ([1]; PI staining): imparts a benefit
CCCCCCC(=O)CCCCCC/C=C/C[C@@H](O)[C@H](O)[C@@](N)(CO)C(=O)O [ISP-1, myriocin]	potent but non-selective inhibition	–	–
CCCCCCCCc1ccc(CCC(N)(CO)CO)cc1 [FTY720]	–	do not inhibit SPT	–
N[C@@H]1CON=C1O [cycloserine]	–	–	beta cell protective effect [4]: ≈ 50%
CCCCCCCCc1ccc(CCC(N)(CO)C(=O)O)cc1 (stereo not shown) [compound 2]	–	did not exhibit activity	–
